Test results reported in ChEMBL document CHEMBL4428109, “Structure-activity relationship studies of non-carboxylic acid peroxisome proliferator-activated receptor α/δ (PPARα/δ) dual agonists” (Bioorg Med Chem, 2016).
Calls of active or inactive are those of the source. No cut-off for these calls is given here.

Legend:
[1] = target: T1, Peroxisome proliferator-activated receptor delta (Homo sapiens, UniProt Q03181); test: Agonist activity at N-terminal Gal4 fused human PPARdelta LBD transfected in HEK293 cells after 24 hrs by luciferase reporter gene assay; format: cell-based
T1 sequence (Q03181 whole entry): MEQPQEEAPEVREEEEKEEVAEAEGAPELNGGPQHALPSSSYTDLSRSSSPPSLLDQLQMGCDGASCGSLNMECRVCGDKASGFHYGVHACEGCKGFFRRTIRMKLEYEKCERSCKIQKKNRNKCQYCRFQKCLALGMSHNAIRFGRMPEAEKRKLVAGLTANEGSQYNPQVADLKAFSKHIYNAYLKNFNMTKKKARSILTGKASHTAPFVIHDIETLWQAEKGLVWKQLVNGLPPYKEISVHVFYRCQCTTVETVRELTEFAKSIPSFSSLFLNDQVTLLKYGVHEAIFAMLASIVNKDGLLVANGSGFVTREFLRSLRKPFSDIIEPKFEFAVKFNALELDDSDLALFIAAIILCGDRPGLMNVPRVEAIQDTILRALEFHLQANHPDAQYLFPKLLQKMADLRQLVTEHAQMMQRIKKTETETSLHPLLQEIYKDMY

[2] = target: T2, Oxysterols receptor LXR-alpha (Homo sapiens) (UniProt Q13133); test: Agonist activity at LXRalpha (unknown origin) at < 20 uM
T2 sequence (whole entry): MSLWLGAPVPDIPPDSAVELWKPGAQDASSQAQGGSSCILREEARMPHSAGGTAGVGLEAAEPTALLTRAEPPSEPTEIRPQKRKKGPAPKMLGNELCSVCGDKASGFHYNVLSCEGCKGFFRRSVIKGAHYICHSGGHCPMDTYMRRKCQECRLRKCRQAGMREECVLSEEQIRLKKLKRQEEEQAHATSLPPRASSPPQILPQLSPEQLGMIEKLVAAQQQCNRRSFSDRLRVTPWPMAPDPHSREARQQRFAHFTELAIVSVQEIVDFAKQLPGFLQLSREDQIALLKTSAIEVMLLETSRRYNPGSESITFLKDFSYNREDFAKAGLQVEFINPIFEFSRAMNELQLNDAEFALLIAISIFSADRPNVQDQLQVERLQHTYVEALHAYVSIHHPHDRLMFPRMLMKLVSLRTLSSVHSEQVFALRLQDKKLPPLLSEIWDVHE

[3] = target: T3, Peroxisome proliferator-activated receptor delta (Homo sapiens) (UniProt Q03181); test: Agonist activity at N-terminal Gal4 fused human PPARdelta LBD transfected in HEK293 cells after 24 hrs by luciferase reporter gene assay relative to GW501516; format: cell-based
T3 sequence (whole entry): T1 sequence (Q03181 whole entry)

[4] = target: T4, Retinoic acid receptor RXR-gamma (Homo sapiens) (UniProt P48443); test: Agonist activity at RXRgamma (unknown origin) at < 20 uM
T4 sequence (whole entry): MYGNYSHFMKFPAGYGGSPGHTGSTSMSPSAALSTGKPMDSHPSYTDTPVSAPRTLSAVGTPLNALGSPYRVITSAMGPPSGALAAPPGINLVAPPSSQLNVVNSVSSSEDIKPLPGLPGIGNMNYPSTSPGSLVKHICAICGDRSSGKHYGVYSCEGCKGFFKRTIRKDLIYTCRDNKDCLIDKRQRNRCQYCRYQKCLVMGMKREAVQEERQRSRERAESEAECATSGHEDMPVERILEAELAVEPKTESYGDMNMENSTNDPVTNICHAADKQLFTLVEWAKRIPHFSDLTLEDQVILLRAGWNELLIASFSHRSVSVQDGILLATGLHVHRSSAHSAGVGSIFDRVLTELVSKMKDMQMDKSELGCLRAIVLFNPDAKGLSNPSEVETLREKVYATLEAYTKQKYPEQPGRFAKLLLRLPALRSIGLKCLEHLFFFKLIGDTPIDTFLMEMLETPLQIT

[5] = target: T5, Oxysterols receptor LXR-beta (Homo sapiens) (UniProt P55055); test: Agonist activity at LXRbeta (unknown origin) at < 20 uM
T5 sequence (whole entry): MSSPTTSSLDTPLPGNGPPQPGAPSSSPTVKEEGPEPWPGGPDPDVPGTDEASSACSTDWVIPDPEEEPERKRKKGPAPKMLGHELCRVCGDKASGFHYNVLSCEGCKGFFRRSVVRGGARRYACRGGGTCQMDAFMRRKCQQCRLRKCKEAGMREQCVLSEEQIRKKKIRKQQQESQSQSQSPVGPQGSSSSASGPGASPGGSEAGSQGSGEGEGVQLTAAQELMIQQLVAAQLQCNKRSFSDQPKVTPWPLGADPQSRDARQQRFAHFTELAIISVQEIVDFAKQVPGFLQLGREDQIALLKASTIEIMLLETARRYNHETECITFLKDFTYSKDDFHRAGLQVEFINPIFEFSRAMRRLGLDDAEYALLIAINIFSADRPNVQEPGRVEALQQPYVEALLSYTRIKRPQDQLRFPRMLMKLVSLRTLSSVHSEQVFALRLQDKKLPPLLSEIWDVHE

[6] = target: T6, Retinoic acid receptor RXR-alpha (Homo sapiens) (UniProt P19793); test: Agonist activity at RXRalpha (unknown origin) at < 20 uM
T6 sequence (whole entry): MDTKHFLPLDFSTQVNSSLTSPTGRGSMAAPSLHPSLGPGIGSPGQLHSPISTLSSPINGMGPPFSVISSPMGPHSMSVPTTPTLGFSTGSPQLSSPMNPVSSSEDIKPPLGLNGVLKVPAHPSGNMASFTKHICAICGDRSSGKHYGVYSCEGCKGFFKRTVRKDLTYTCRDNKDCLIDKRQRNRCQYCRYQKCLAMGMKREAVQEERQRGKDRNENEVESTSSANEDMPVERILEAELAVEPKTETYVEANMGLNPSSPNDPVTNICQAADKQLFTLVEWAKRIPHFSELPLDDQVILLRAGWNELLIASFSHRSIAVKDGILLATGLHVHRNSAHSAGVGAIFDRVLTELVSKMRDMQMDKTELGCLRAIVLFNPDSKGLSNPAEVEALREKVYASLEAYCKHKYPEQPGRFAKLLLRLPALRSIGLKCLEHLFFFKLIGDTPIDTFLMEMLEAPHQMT

[7] = target: T7, Bile acid receptor (Homo sapiens) (UniProt Q96RI1); test: Agonist activity at FXR (unknown origin) at < 20 uM
T7 sequence (whole entry): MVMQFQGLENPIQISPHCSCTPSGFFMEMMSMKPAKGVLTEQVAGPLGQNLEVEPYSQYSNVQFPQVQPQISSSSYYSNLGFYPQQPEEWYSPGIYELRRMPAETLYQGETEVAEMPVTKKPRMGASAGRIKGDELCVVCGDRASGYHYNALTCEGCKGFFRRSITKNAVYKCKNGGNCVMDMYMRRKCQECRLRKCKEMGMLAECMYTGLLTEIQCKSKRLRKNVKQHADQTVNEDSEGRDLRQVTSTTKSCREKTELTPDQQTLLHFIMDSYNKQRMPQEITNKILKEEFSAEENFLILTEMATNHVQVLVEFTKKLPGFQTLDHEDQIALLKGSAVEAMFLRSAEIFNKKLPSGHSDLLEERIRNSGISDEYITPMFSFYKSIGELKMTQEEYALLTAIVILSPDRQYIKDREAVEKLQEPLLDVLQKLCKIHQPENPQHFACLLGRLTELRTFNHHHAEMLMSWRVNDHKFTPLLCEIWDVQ

EC50 [1]: 46 nM
Activity [2]: inactive
Emax [3]: 5 to 10%
Activity [4]: inactive
Activity [5]: inactive
Activity [6]: inactive
Activity [7]: inactive
Structure (SMILES): CC(=O)NC(C)c1nc(-c2ccc(Oc3ccc(OCc4ccccc4)cc3)cc2)no1 (configuration not stated)
